Source: patent US10968200B2, “Salts of an LSD1 inhibitor and processes for preparing the same” (priority 2018, dated 2021)
Where a name gives a salt, the structure may show the parent alone.

Experiments:
[1] = biological target: T1, LSD-1 enzyme (LSD1/KDM1A) (Homo sapiens, UniProt O60341); test: LANCE LSD1/KDM1A histone demethylase biochemical assay; conditions: 1 nM LSD-1 enzyme, 1 hour preincubation at 25° C., Biotin-labeled Histone H3 peptide substrate
T1 construct: purchased ENZO BML-SE544-0050
Protocol: LANCE LSD1/KDM1A demethylase assay-10 μL of 1 nM LSD-1 enzyme (ENZO BML-SE544-0050) in the assay buffer (50 mM Tris, pH 7.5, 0.01% Tween-20, 25 mM NaCl, 5 mM DTT) were preincubated for 1 hour at 25° C. with 0.8 μL compound/DMSO dotted in black 384 well polystyrene plates. Reactions were started by addition of 10 μL of assay buffer containing 0.4 μM Biotin-labeled Histone H3 peptide substrate: ART-K(Me1)-QTARKSTGGKAPRKQLA-GGK(Biotin) SEQ ID NO:1 (AnaSpec 64355) and incubated for 1 hour at 25° C. Reactions were stopped by addition of 10 μL 1× LANCE Detection Buffer (PerkinElmer CR97-100) supplemented with 1.5 nM Eu-anti-unmodified H3K4 Antibody (PerkinElmer TRF0404), and 225 nM LANCE Ultra Streptavidin (PerkinElmer TRF102) along with 0.9 mM Tranylcypromine-HCl (Millipore 616431). After stopping the reactions plates were incubated for 30 minutes and read on a PHERAstar FS plate reader (BMG Labtech).

[2] = Competitive slurry experiment, stability relationship between Forms II-V; format: physicochemical; conditions: competitive slurry of Forms II-V in methanol, 23-25° C., 65-75% humidity, XRPD after 4 h and 20 h
Protocol: The transformation of Compound 1 di-HCl solid forms was evaluated in competitive slurry experiments in methanol at 23-25° C. and 65-75% humidity. The experiments were performed with a mixture of four polymorphs (Form II through Form V), according to the following procedure.
10.0 mg of Compound 1 di-HCl Form II was added to a saturated solution of Compound 1 di-HCl Form II in methanol (1.0 mL) and stirred to give a thin slurry. A mixture of Form III (10.29 mg), Form IV (10.39 mg), and Form V (10.95 mg) were added to the slurry. The mixture was stirred for 4 h at 25° C.
A portion of the mixture was filtered after 4 h. The filtered solids were analyzed by XRPD and determined to be Form II in addition to a minor amount of amorphous solid.
A portion of the mixture was filtered after 20 h. The filtered solids were analyzed by XRPD and determined to be Form II in addition to a minor amount of amorphous solid. The sample was then dried under vacuum at 46-48° C. for 36 h. The dried solids were analyzed by XRPD and determined to be Form II.

Compound | IC50 [1] | relative stability of solid forms [2]
N#CCC1(N2CCC(N[C@@H]3C[C@H]3c3ccccc3)CC2)CN(S(N)(=O)=O)C1 [Compound 1, 3-(cyanomethyl)-3-(4-{[(1R,2S)-2-phenylcyclopropyl]amino}piperidin-1-yl)azetidine-1-sulfonamide] | ≤ 0.1 µM | 
N#CCC1(N2CCC(N[C@@H]3C[C@H]3c3ccccc3)CC2)CN(S(N)(=O)=O)C1 [Form II, 3-(cyanomethyl)-3-(4-{[(1R,2S)-2-phenylcyclopropyl]amino}piperidin-1-yl)azetidine-1-sulfonamide dihydrochloride] |  | most stable form
